Patent US20110275094A1, “PHOSPHORYLATED FMS-RELATED TYROSINE KINASE 3 BIOMARKER ASSAY” (priority 2008, published 2011)
Like-named read-outs stand apart in the source and are kept apart here.

Tests used:
[1] = system: peripheral blast / bone marrow blast
Experimental: The samples were then flash frozen in −70° C. A small number of patient samples were frozen unlysed and lysed afterwards.

[2] = AC220 phase I study, tolerability; type: in vivo; conditions: QD, patients of phase I study
From the text: Thus, the pFLT3 ELISA of the invention successfully yielded useful pharmacodynamic data that not only guided the decision to change the dosing schedule from intermittent to continuous, but also guided the selection of the starting dose level for the 28-day continuous schedule, when information on dose limiting toxicity or maximum tolerated dose was still unavailable.

CC(C)(C)c1cc(NC(=O)Nc2ccc(-c3cn4c(n3)sc3cc(OCCN5CCOCC5)ccc34)cc2)no1 [AC220]
bone marrow blast percentage ([1]; Patient A): appeared to reduce bone marrow blast percentage
protocol defined response ([1]; Patient D): CRp/PR
protocol defined response ([1]; Patient E): CRi
maximum tolerated dose [2]: > 300 mg per day
